Values of other authors in US6468993B1, “Method for reducing development of osteoporosis” (BioNumerik Pharmaceuticals, Inc., priority 1999, dated 2002).

What was measured:
humans = settings: doses exceeding 40 g/m^2
mice = settings: intravenously, doses higher than 3750 mg/kg
dogs = settings: intravenously, doses higher than 3750 mg/kg

Compound	accepted oral LD50 [mg/kg]	adverse effects after administration (humans)	adverse effects after administration (mice)	adverse effects after administration (dogs)
[Cl-].[Na+] [common table salt]	3750			
O=S(=O)([O-])CCSSCCS(=O)(=O)[O-].[Na+].[Na+] [dimesna, disodium 2,2′-dithiobis ethane sulfonate]		no adverse effects	no adverse effects	no adverse effects
